Measured values taken from patent publication US20120214862A1, “MODULATION OF FACTOR 7 EXPRESSION” (ISIS Pharmaceuticals, Inc., priority 2009, published 2012).
In the oligonucleotide strings, read from the 5' end, every base follows the letter of its sugar. An asterisk marks phosphorothioate; unmarked linkages are phosphodiester. Other units and linkages are bracketed, terminal groups are in braces. A string of capitals states the bases alone. e = 2'-O-(2-methoxyethyl) (MOE); [5mC] = 5-methylcytosine; d = 2'-deoxy (DNA)

tested on: human Factor 7 mRNA; experiment: Antisense inhibition of human Factor 7 mRNA in HepB3 cells, lipofectin, 50 nM, real-time RT-PCR; type: cell-based; conditions: HepB3 cells, lipofectin, 50 nM antisense oligonucleotide, approximately 24 hours, primer probe set RTS 2927, relative to untreated control
Procedure, shortened: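 After transfection of wells containing 4,000 cells, treatment ran for approximately 24 h. RIBOGREEN®-measured total RNA served for normalisation, and inhibition was calculated as a percentage of untreated control.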

Row | Substance | % Inhibition of human Factor 7 mRNA levels [%]
1 | 416490 (antisense eA*e[5mC]*eT*e[5mC]*eA*dG*d[5mC]*dA*dA*dG*dA*dG*dT*dG*d[5mC]*eA*eG*e[5mC]*eT*eT) [compound 416490] | 33
2 | 416491 (antisense eG*eA*eG*eA*eA*dG*dG*dG*dT*dT*dG*d[5mC]*dA*dG*dG*e[5mC]*eA*eG*eG*eA) [compound 416491] | 2
3 | 416492 (antisense eG*eG*eA*eT*e[5mC]*dA*dT*dT*d[5mC]*dT*dG*dG*d[5mC]*d[5mC]*d[5mC]*eT*eG*eA*eG*e[5mC]) [compound 416492] | 13
4 | 416493 (antisense eT*e[5mC]*eT*eT*eG*dG*dG*dT*dG*dT*dG*dG*dA*dT*dG*eT*eA*eA*eA*eT) [compound 416493] | 0
5 | 416494 (antisense e[5mC]*eA*eG*eA*eT*dT*dT*dA*dA*dA*d[5mC]*dT*dG*d[5mC]*dA*eG*eA*eT*eG*eA) [compound 416494] | 0
6 | 416495 (antisense eT*e[5mC]*eT*eA*eG*dA*dA*dT*dT*d[5mC]*d[5mC]*dA*dA*dA*d[5mC]*e[5mC]*e[5mC]*e[5mC]*eT*eA) [compound 416495] | 0
7 | 416496 (antisense e[5mC]*eA*eA*e[5mC]*eA*d[5mC]*dT*dT*d[5mC]*dA*dA*dA*dT*dA*d[5mC]*eG*eA*eT*e[5mC]*eT) [compound 416496] | 0
8 | 416497 (antisense e[5mC]*eG*eT*eG*e[5mC]*dA*dG*dG*dT*dG*dT*dT*dA*dA*dG*eG*eT*eG*eT*eG) [compound 416497] | 0
9 | 416498 (antisense eG*eG*e[5mC]*e[5mC]*eA*dG*dT*dG*dG*d[5mC]*d[5mC]*dA*dT*dG*d[5mC]*eA*eT*e[5mC]*e[5mC]*e[5mC]) [compound 416498] | 5
10 | 416499 (antisense eG*eA*eG*eA*eG*d[5mC]*dT*dG*d[5mC]*dA*d[5mC]*d[5mC]*dT*dG*dG*e[5mC]*e[5mC]*eG*eG*e[5mC]) [compound 416499] | 7
11 | 416500 (antisense e[5mC]*eT*eG*eA*eA*d[5mC]*dA*d[5mC]*d[5mC]*d[5mC]*d[5mC]*dA*dG*d[5mC]*dT*eG*eA*eG*eA*eG) [compound 416500] | 1
12 | 416501 (antisense e[5mC]*eT*eG*e[5mC]*e[5mC]*d[5mC]*dT*dT*d[5mC]*d[5mC]*dA*d[5mC]*d[5mC]*dA*dA*eG*eT*eT*eT*eA) [compound 416501] | 18
13 | 416502 (antisense eG*eT*eT*e[5mC]*eT*dT*dT*dG*dA*dA*dA*dA*dA*dT*dA*eA*eT*e[5mC]*e[5mC]*e[5mC]) [compound 416502] | 22
14 | 416503 (antisense eT*eA*eG*e[5mC]*e[5mC]*dA*d[5mC]*d[5mC]*d[5mC]*d[5mC]*dG*d[5mC]*dG*dG*dG*e[5mC]*eT*eG*eG*e[5mC]) [compound 416503] | 0
15 | 416504 (antisense eT*e[5mC]*eA*eG*eA*dA*dA*dA*dG*d[5mC]*dT*d[5mC]*dT*d[5mC]*dA*eA*eG*eA*eA*e[5mC]) [compound 416504] | 0
16 | 416505 (antisense eG*e[5mC]*eA*eG*eA*dT*dT*dT*dG*d[5mC]*dA*dT*d[5mC]*dA*dG*eA*eA*eA*eA*eG) [compound 416505] | 45
17 | 416506 (antisense e[5mC]*eT*eT*eT*eA*dA*dA*dA*dT*d[5mC]*dA*dG*dT*dT*dT*e[5mC]*eA*e[5mC]*eA*e[5mC]) [compound 416506] | 18
18 | 416509 (antisense eA*eG*eG*eA*eG*d[5mC]*d[5mC]*d[5mC]*dG*dA*dG*dT*dT*d[5mC]*dT*eG*e[5mC]*eA*eG*eG) [compound 416509] | 56
19 | 416510 (antisense eG*eA*e[5mC]*eG*eA*dG*dG*d[5mC]*d[5mC]*dT*d[5mC]*dA*dG*dG*dT*eG*eG*eA*e[5mC]*eG) [compound 416510] | 30
20 | 416511 (antisense eT*eT*eG*e[5mC]*eT*dG*dG*dG*dA*dG*dG*dA*d[5mC]*dG*dA*eG*eG*e[5mC]*e[5mC]*eT) [compound 416511] | 35
21 | 416512 (antisense eG*eA*e[5mC]*eG*eA*d[5mC]*d[5mC]*dT*dT*dT*dG*d[5mC]*dT*dG*dG*eG*eA*eG*eG*eA) [compound 416512] | 43
22 | 416513 (antisense e[5mC]*eT*eG*eA*eT*dG*dT*dG*dA*dA*dA*dA*d[5mC]*d[5mC]*dG*eG*e[5mC]*eA*eT*eG) [compound 416513] | 37
23 | 416514 (antisense eG*eT*eA*eT*eT*dT*dT*d[5mC]*dT*dG*dA*dT*dG*dT*dG*eA*eA*eA*eA*e[5mC]) [compound 416514] | 8

Row | Substance | % Inhibition of human Factor 7 mRNA levels [%]
24 | 416515 (antisense eT*eA*eG*eG*e[5mC]*dA*dT*dG*dA*d[5mC]*d[5mC]*dA*dT*d[5mC]*d[5mC]*eT*e[5mC]*eA*eA*eT) [compound 416515] | 39
25 | 416516 (antisense eG*eT*eG*eA*eG*dA*dA*dT*dA*d[5mC]*dA*dA*d[5mC]*dA*dG*eA*eT*eG*eA*eG) [compound 416516] | 24
26 | 416517 (antisense eG*eG*eG*eT*eG*d[5mC]*dA*dG*dT*dA*dG*d[5mC]*dA*dG*dA*eT*eG*e[5mC]*eA*eA) [compound 416517] | 23
27 | 416518 (antisense eG*eG*eG*eT*eG*dA*d[5mC]*d[5mC]*dA*d[5mC]*dA*d[5mC]*dA*dT*dT*eT*e[5mC]*e[5mC]*eT*eG) [compound 416518] | 55
28 | 416519 (antisense eA*eA*eA*eT*eA*dT*dG*dG*dG*dA*d[5mC]*d[5mC]*d[5mC]*dA*dA*eA*eG*eT*eG*eG) [compound 416519] | 9
29 | 416520 (antisense e[5mC]*e[5mC]*e[5mC]*eT*e[5mC]*dT*dG*d[5mC]*dA*dA*dA*dT*dA*dT*dG*eG*eG*eA*e[5mC]*e[5mC]) [compound 416520] | 14
30 | 416521 (antisense e[5mC]*eA*e[5mC]*e[5mC]*e[5mC]*d[5mC]*dA*d[5mC]*d[5mC]*dA*dG*dG*dT*dT*dG*eT*eG*e[5mC]*eA*e[5mC]) [compound 416521] | 36
31 | 416522 (antisense eG*eG*e[5mC]*eT*eG*dA*dG*dA*dA*dT*dT*dG*d[5mC]*d[5mC]*d[5mC]*eA*eG*eG*eG*e[5mC]) [compound 416522] | 25
32 | 416523 (antisense eT*e[5mC]*eT*e[5mC]*eG*dA*dG*dG*dG*d[5mC]*dT*dG*dA*dG*dA*eA*eT*eT*eG*e[5mC]) [compound 416523] | 18
33 | 416524 (antisense eT*eA*eA*eT*eT*dT*dA*dA*dT*dA*dT*dT*d[5mC]*dA*dG*eA*eT*eG*eG*eT) [compound 416524] | 0
34 | 416525 (antisense eT*eA*eT*eG*eA*dG*dT*d[5mC]*d[5mC]*dT*dT*d[5mC]*dT*dA*dG*eT*eG*eA*eA*eT) [compound 416525] | 5
35 | 416526 (antisense eT*eG*eT*e[5mC]*e[5mC]*dA*d[5mC]*dA*dT*dG*dA*d[5mC]*d[5mC]*d[5mC]*d[5mC]*eA*e[5mC]*eA*eG*eG) [compound 416526] | 19
36 | 416527 (antisense eG*eA*eG*e[5mC]*eT*dT*d[5mC]*d[5mC]*d[5mC]*dA*dA*dG*dT*dT*dG*eG*e[5mC]*eA*eG*eT) [compound 416527] | 49
37 | 416528 (antisense eT*eG*eA*eT*eA*dA*dA*dA*d[5mC]*d[5mC]*dT*d[5mC]*dT*dG*dG*eA*e[5mC]*eA*e[5mC]*e[5mC]) [compound 416528] | 10
38 | 416529 (antisense eG*eG*eG*e[5mC]*eT*dG*dA*dG*dA*d[5mC]*dT*dG*dA*dG*dG*eT*e[5mC]*eA*eG*e[5mC]) [compound 416529] | 18
39 | 416530 (antisense eA*eG*eG*eG*eT*dA*dG*d[5mC]*d[5mC]*dT*dT*dT*dG*d[5mC]*d[5mC]*eT*eT*eG*eG*e[5mC]) [compound 416530] | 35
40 | 416531 (antisense eA*eG*eA*eT*eG*dA*d[5mC]*d[5mC]*dA*dG*d[5mC]*dA*dG*dG*dA*eA*eG*e[5mC]*e[5mC]*eT) [compound 416531] | 19
41 | 416532 (antisense eG*eG*eA*e[5mC]*e[5mC]*d[5mC]*dA*dG*dA*dT*dG*dA*d[5mC]*d[5mC]*dA*eG*e[5mC]*eA*eG*eG) [compound 416532] | 12
42 | 416533 (antisense eG*e[5mC]*eA*eT*eT*d[5mC]*dT*dG*dG*dA*d[5mC]*d[5mC]*d[5mC]*dA*dG*eA*eT*eG*eA*e[5mC]) [compound 416533] | 41
43 | 416534 (antisense eA*eT*eG*e[5mC]*eA*d[5mC]*dA*d[5mC]*d[5mC]*dA*dG*dG*dG*d[5mC]*dT*eG*e[5mC]*eT*eG*eG) [compound 416534] | 32
44 | 416535 (antisense eG*e[5mC]*eA*eG*eG*dA*dT*dG*d[5mC]*dA*d[5mC]*dA*d[5mC]*d[5mC]*dA*eG*eG*eG*e[5mC]*eT) [compound 416535] | 47
45 | 416536 (antisense e[5mC]*eG*eG*eG*eA*dA*dG*dG*d[5mC]*d[5mC]*dT*dG*d[5mC]*d[5mC]*d[5mC]*eT*eG*e[5mC]*eA*eG) [compound 416536] | 23

same assay, conditions: HepB3 cells; gapmers (5-10-5, 3-14-3, 2-13-5 MOE) targeted to nucleobases 4868 to 4899 of SEQ ID NO: 1

Row | Substance | % Inhibition of human Factor 7 mRNA levels [%]
46 | 416509 (antisense eA*eG*eG*eA*eG*d[5mC]*d[5mC]*d[5mC]*dG*dA*dG*dT*dT*d[5mC]*dT*eG*e[5mC]*eA*eG*eG) [compound 416509] | 60
